Here are results for 2 molecules from patent US7892350B2, “Sacrificial agents for fly ash concrete” (Boral Material Technologies Inc., priority 2003, dated 2011).

Data set [1] can be described thus: Adsorption/precipitation of SA or AEA in 10 wt % aqueous fly ash or cement slurries at pH 12.5. It is filed as physicochemical. The settings on record: initial SA 3 mM. On the procedure:
Adsorption/Precipitation of Sacrificial Agents (SA) or Air Entrainment Agents (AEA) in 10 wt % Aqueous Fly Ash Slurries at pH 12.5:
(§1) The pH of the solutions were adjusted to 12.5 with NaOH.
Adsorption/Precipitation in FA or Cement Slurries: In this protocol, aqueous slurries containing 10 wt % FA or cement were prepared as described above, except that in this case, the cement was added directly into a solution of the SA or AEA in the following proportions: 3.0 g cement or FA, and 27 g of 3 mM sacrificial agent, or 27 g of 1050 mg/l AEA; the latter were prepared in the same way as in the precipitation test above. The residual (soluble) SA or AEA content in the solution was also determined by UV or COD.

A short description of data set [2]: Precipitation in slurry extract or leachate. It is filed as physicochemical. The settings on record: pH 12.5, entries in parentheses. On the procedure: as §1
Precipitation in slurry extract or leachate: To perform this test, FA or cement leachate were prepared in advance, by filtering two liters of a 10 wt % FA, or cement, slurry in 0.03N NaOH which had been left to stand under slow agitation for 30 min; 2.5 g of the filtrate solution was mixed with 22.5 g of the SA or AEA solution in a 50 ml polypropylene centrifuge tube; the latter was shaken vigorously in an orbital shaker (Eberbach Corporation) for 30 min at room temperature, centrifuged for 5 min and then the supernatant solution was filtered (0.45 μm). The SA or AEA content of the solution was determined using an Ultraviolet-Visible (UV) spectrometer or by COD (Chemical Oxygen Demand) measurement.
Entries in parentheses: % precipitation when reacted with solutions extracted from the fly ash slurries (Results in Table 5).

Data set [3] can be described thus: Paste air entrainment, Minimum air protocol. The procedure: (§2) Preparation of pastes: Pastes were prepared by pouring 400 g of cementitious powder in the 350-400 g of solution (water and additives) in a vessel (8.4 cm dia,×14.5 cm height) while gently stirring with a spatula; the exact quantity of water depends on the selected W/B ratio (see below); rapid hand mixing was continued for 1 minute, followed by intense stirring at 25° C. during 2 min using a hand-held mixer (BRAUN model MR400). The level of air entrained is dependent on the mode of utilisation of the mixer, namely the height of the mixer from the bottom of the vessel and the length of the mixing stroke; the following protocols were adopted.
Minimum air protocol: The BRAUN mixer is positioned at 1.0 inch from the bottom of the mixing vessel and the up-down motion of the mixer is limited to a 1.0 inch displacement; this provided ‘minimum air’ entrained air levels and is later referred to as ‘Minimum air protocol’ (Results reported in Table 6, col. 1 and Table 7).
(§3) Fluidity measurements: For all air entrainment measurements, the initial fluidity of the paste (without additives) was controlled using the ‘mini-slump’ procedure widely used for paste and grouts. In this protocol, a portion of the paste was transferred into the min-slump cone (a 2¼″ high, 1½″ bottom diameter, ¾″ top diameter cone); excess paste was skimmed-off with a straight; the cone was then raised and the spread diameter of the paste was recorded (average of two measurements). The fluidity is measured at 10 minutes after mixing. The paste is returned to the batch and reserved for subsequent AE measurements. The fluidity of the paste (without SA and AEA) is adjusted by changing the amount of water (water/cementitious ratio) which yields a spread diameter of 115±5 mm. The latter is monitored regularly.
(§4) Air entrainment measurements: For air entrainment measurements, a portion of the paste was transferred to overfill a Plexiglas cylinder (3¾ inches height, 2 inches interior diameter), which was then levelled flush to the top of the cylinder with a straight edge. The mass of the filled cylinder, minus the weight of the empty cylinder, is then recorded and used to calculate the amount of air according to the following formula: […]
(§5) This procedure was carried out at three times at 30 min. intervals (6, 36 and 66 min); the paste was let to stand at rest between measurements, and was stirred gently by hand for one minute prior to the subsequent air entrainment measurements.
Typical mixture compositions for air entrainment measurements in pastes containing a single additive using ‘Minimum air protocol’ (results shown in Table 6, col. 1): […]

Data set [4] is described as follows: Paste air entrainment, Maximum air protocol. The settings on record: PCA cement paste; 0.0125% SA or AEA alone; Maximum air protocol. The procedure: as §2, §3, §4, §5
Other combinations of air entrainment agents and sacrificial agents were prepared as stock solutions following the procedure outlined above, adjusting the weights of the various components to achieve the desired component ratios.

Setting [5] is: 10 wt % fly ash B1 (LOI 4.36%) slurry, Air 30/Air 40 0.105 wt %.
Setting [6] is: 10 wt % fly ash C1, class C (LOI 1.62%) slurry, Air 30/Air 40 0.105 wt %.
Where [7] appears, read: 10 wt % fly ash C2 (LOI 3.32%) slurry.
Setting [8] is: 10 wt % fly ash M1 (LOI […]) slurry, Air 30/Air 40 0.105 wt %.
The mark [9] stands for this setting: 10 wt % fly ash M2 (LOI 5.34%) slurry, Air 30/Air 40 0.105 wt %.
Setting [10] is: 10 wt % fly ash M3 (LOI 11.33%) slurry, Air 30/Air 40 0.105 wt %.
[11] abbreviates: 10 wt % fly ash N (LOI 0.30%) slurry.
[12] abbreviates: solution extracted from 10 wt % fly ash B1 (LOI 4.36%) slurry.
Setting [13] is: solution extracted from 10 wt % fly ash C1, class C (LOI 1.62%) slurry.
Setting [14] is: solution extracted from 10 wt % fly ash C2 (LOI 3.32%) slurry.
Where [15] appears, read: solution extracted from 10 wt % fly ash M1 (LOI […]) slurry.
Setting [16] is: solution extracted from 10 wt % fly ash M2 (LOI 5.34%) slurry.
Where [17] appears, read: solution extracted from 10 wt % fly ash M3 (LOI 11.33%) slurry.
Where [18] appears, read: solution extracted from 10 wt % fly ash N (LOI 0.30%) slurry.

For `NCc1ccccc1` [BA, Benzylamine], the “Adsorption (wt % Adsorbed)” value in data set [1] (setting [5]) is 25 wt %; in data set [1] (setting [6]), 25 wt %; in data set [1] (setting [7]), 20 wt %; in data set [1] (setting [8]), 13 wt %; in data set [1] (setting [9]), 23 wt %; in data set [1] (setting [10]) it was 23 wt %. For the same molecule, the “Adsorption (wt % Adsorbed)” value in data set [1] (setting [11]) turned out to be 16 wt %. In addition, the “Precipitation (wt % precipitated)” value in data set [2] (setting [12]) amounted to 12 wt %; in data set [2] (setting [13]), 11 wt %; in data set [2] (setting [14]), 14 wt %; in data set [2] (setting [15]), 11 wt %; in data set [2] (setting [16]), 15 wt %; in data set [2] (setting [17]), 13 wt %. For the same molecule, in data set [2] (setting [18]), the “Precipitation (wt % precipitated)” value came to 11 wt %.
`O=C([O-])c1cccc2ccccc12.[Na+]` [NA, 1-Naphthoic acid sodium salt]: the “Adsorption (wt % Adsorbed)” value is 9 wt % in data set [1] (setting [5]); 61 wt % in data set [1] (setting [6]); 4 wt % in data set [1] (setting [7]); 90 wt % in data set [1] (setting [8]); 9 wt % in data set [1] (setting [9]); 12 wt % in data set [1] (setting [10]). Further, the “Adsorption (wt % Adsorbed)” value in data set [1] (setting [11]) turned out to be 20 wt %. For the same molecule, the “Precipitation (wt % precipitated)” value is reported as 0 wt % in data set [2] (setting [12]); 0 wt % in data set [2] (setting [13]); 0 wt % in data set [2] (setting [14]); 80 wt % in data set [2] (setting [15]); 0 wt % in data set [2] (setting [16]); 0 wt % in data set [2] (setting [17]). Moreover, the “Precipitation (wt % precipitated)” value in data set [2] (setting [18]) was found to be 0 wt %. The Air entrained in data set [3] (50:50 fly ash B1 (LOI 4.36%):PCA paste, 0.1 wt % Air 30 alone or with 0.05 wt % of the SA) was found to be 4 vol %; in data set [3] (50:50 fly ash C1 (LOI 1.62%):PCA paste, 0.1 wt % Air 30 alone or with 0.05 wt % of the SA) it was 5 vol %; in data set [3] (50:50 fly ash D (LOI […]):PCA paste, 0.1 wt % Air 30 alone or with 0.05 wt % of the SA) it was 6 vol %; in data set [3] (50:50 fly ash M1 (LOI […]):PCA paste, 0.1 wt % Air 30 alone or with 0.05 wt % of the SA), 6 vol %; in data set [3] (50:50 fly ash M2 (LOI 5.34%):PCA paste, 0.1 wt % Air 30 alone or with 0.05 wt % of the SA) it was 4 vol %; in data set [3] (50:50 fly ash M3 (LOI 11.33%):PCA paste, 0.1 wt % Air 30 alone or with 0.05 wt % of the SA) it was 5 vol %. For the same molecule, the Air entrained in data set [3] (50:50 fly ash R (LOI […]):PCA paste, 0.1 wt % Air 30 alone or with 0.05 wt % of the SA) is given as 4 vol %; in data set [3] (PCA cement paste, 0.1% SA or AEA alone, Minimum air protocol) it was 0 vol %; in data set [4], 0 vol %. The “Average of air entrained” value in data set [3] (over the fly ash:PCA pastes of Table 7, 0.1 wt % Air 30 alone or with 0.05 wt % of the SA) is 5%.
